Experimental data published in patent US20150258062A1, “COMPOSITIONS AND METHODS FOR TREATMENT OF RENAL DISEASE” (priority 2009, published 2015).

Assays:
[1] = tested on: non-diabetic patients already receiving dual therapy with both an ACEI plus an ARB agent; settings: after 1 year; non-diabetic patients on ACEI plus ARB; independent of BP changes; cited from earlier work
[2] = tested on: slow component of the delayed rectifier K+ current (IKs); settings: cited from earlier work
[3] = Clinic case studies: serum laboratory profile (uric acid, potassium, creatinine, urea nitrogen); format: in vivo, human
[4] = tested on: ventricular repolarization, QT interval and Torsade; settings: cited from earlier work
[5] = tested on: Inward sodium current; settings: Table 1; cited from earlier work
[6] = tested on: Outward potassium current; settings: Table 1; cited from earlier work
[7] = tested on: Inward Calcium current; settings: Table 1; cited from earlier work
[8] = Clinic case studies: blood pressure, pulse, body weight, edema, GFR, EKG; format: in vivo, human

Row | SMILES | additive reduction of proteinuria [1] | effect on IKs [2] | uric acid ([3]; Case 1, Day 25, indapamide 2.5 mg with losartan 50 mg, terazosin 2 mg) | creatinine ([3]; Case 1, Day 25, indapamide 2.5 mg with losartan 50 mg, terazosin 2 mg, Day 0 value 2.3) | urea nitrogen ([3]; Case 1, Day 25, indapamide 2.5 mg with losartan 50 mg, terazosin 2 mg, Day 0 value 46) | serum uric acid ([3]; Case 4, indapamide 1.25 mg per day with losartan, amlodipine, after 9 months, baseline 7.5) | serum potassium ([3]; Example 3 Case 1, stage 4 CKD, Day 25, on indapamide 2.5 mg, losartan 50 mg, terazosin 2 mg since Day 13, Day 0 value 5.2) | serum creatinine and urea nitrogen ([3]; Example 3 Case 4, diabetic nephropathy, losartan 100 mg, amlodipine 5 mg, indapamide 1.25 mg per day, after 9 months) | QT dispersion ([4]; Table 1) | QT interval ([4]; Table 1) | Torsade ([4]; Table 1) | QT interval and torsade de pointes in patients ([4]; in the presence of normal electrolytes (Letsas, Alexanian et al. 2006)) | action on inward sodium current [5] | action on outward potassium current [6] | action on inward calcium current [7] | pedal edema ([8]; Case 1, Day 34, indapamide 2.5 mg with losartan 50 mg, terazosin 2 mg, before spironolactone) | blood pressure ([8]; Case 1, Day 34, indapamide 2.5 mg with losartan, terazosin, Day 13 value 142/82) | blood pressure ([8]; Example 3 Case 2, diabetic nephropathy, 6 months, 1 month after indapamide 1.25 mg, diltiazem 300 mg started and losartan raised to 100 mg, before 168/108)
1 | CC(=O)S[C@@H]1CC2=CC(=O)CC[C@]2(C)[C@H]2CC[C@@]3(C)[C@@H](CC[C@@]34CCC(=O)O4)[C@H]12 [spironolactone] | 58% | – | – | – | – | – | – | – | – | – | – | – | – | – | – | – | – | –
2 | CC1Cc2ccccc2N1NC(=O)c1ccc(Cl)c(S(N)(=O)=O)c1 (stereo not drawn) [indapamide, 4-chloro-N-(2-methyl-2,3-dihydroindol-1-yl)-3-sulfamoyl-benzamide] | – | blocks | 7.5 mg/dL | 2.6 mg/dL | 36 mg/dL | 7.0 mg/dL | 4.1 mmol/L | unchanged | increased | prolongs | prediposes | QT interval prolongation and torsade de pointes | No effect | Slows | No effect | decreased | 150/90 | 145/93
3 | C[C@]12CCC(=O)C=C1CC[C@@H]1[C@@H]2[C@@H](O)C[C@]2(C=O)[C@@H](C(=O)CO)CC[C@@H]12 [Aldosterone] | – | – | – | – | – | – | – | – | – | – | – | – | Incresases | No effect | Increases | – | – | –
